Test system: 388556-164-R-J1-PDC complex spheroid viability
Test: Anticancer human tumor 388556-164-R-J1-PDC patient-derived colon adenocarcinoma cell line growth inhibition [RAS]
Details: for IC50: curve of first compound; for viability, T/C: stronger effect = lower value
In short: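 Tumour cells grown as complex spheroids with HUVEC endothelial cells and mesenchymal stem cells, treated with RAS pathway inhibitor combinations. Each agent spans half-log steps from near clinical Cmax, or 10 microM where Cmax is unknown.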

[1] = second compound 0.000949 µM, first compound 0.0316 µM
[2] = second compound 0.000949 µM, first compound 0.1 µM
[3] = second compound 0.000949 µM, first compound 0.316 µM
[4] = second compound 0.000949 µM, first compound 1 µM
[5] = second compound 0.000949 µM, first compound 3.16 µM
[6] = second compound 0.000949 µM, first compound 10 µM
[7] = second compound 0.003 µM, first compound 0.0316 µM
[8] = second compound 0.003 µM, first compound 0.1 µM
[9] = second compound 0.003 µM, first compound 0.316 µM
[10] = second compound 0.003 µM, first compound 1 µM
[11] = second compound 0.003 µM, first compound 3.16 µM
[12] = second compound 0.003 µM, first compound 10 µM
[13] = second compound 0.00949 µM, first compound 0.0316 µM
[14] = second compound 0.00949 µM, first compound 0.1 µM
[15] = second compound 0.00949 µM, first compound 0.316 µM
[16] = second compound 0.00949 µM, first compound 1 µM
[17] = second compound 0.00949 µM, first compound 3.16 µM
[18] = second compound 0.00949 µM, first compound 10 µM
[19] = second compound 0.03 µM, first compound 0.0316 µM
[20] = second compound 0.03 µM, first compound 0.1 µM
[21] = second compound 0.03 µM, first compound 0.316 µM
[22] = second compound 0.03 µM, first compound 1 µM
[23] = second compound 0.03 µM, first compound 3.16 µM
[24] = second compound 0.03 µM, first compound 10 µM
[25] = second compound 0.0949 µM, first compound 0.0316 µM
[26] = second compound 0.0949 µM, first compound 0.1 µM
[27] = second compound 0.0949 µM, first compound 0.316 µM
[28] = second compound 0.0949 µM, first compound 1 µM
[29] = second compound 0.0949 µM, first compound 3.16 µM
[30] = second compound 0.0949 µM, first compound 10 µM
[31] = second compound 0.3 µM, first compound 0.0316 µM
[32] = second compound 0.3 µM, first compound 0.1 µM
[33] = second compound 0.3 µM, first compound 0.316 µM
[34] = second compound 0.3 µM, first compound 1 µM
[35] = second compound 0.3 µM, first compound 3.16 µM
[36] = second compound 0.3 µM, first compound 10 µM
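Further: spheroids exposed to compound for 7 days before readout.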
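Wherever viability, T/C is given: 100% = DMSO vehicle control luminescence.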

Compound: CC(Nc1ccc2c(c1)OCCn1cc(N3C(=O)OCC3C(F)F)nc1-2)C(N)=O (centres undefined) + CCn1c(-c2cc(N3CCN(C)CC3)cnc2C(C)OC)c2c3cc(ccc31)-c1csc(n1)CC(NC(=O)C1CC1C)C(=O)N1CCCC(N1)C(=O)OCC(C)(C)C2
- IC50 (second compound 0.000949 µM): > 10 µM
- IC50 (second compound 0.003 µM): 3.45 µM
- IC50 (second compound 0.00949 µM): 0.854 µM
- IC50 (second compound 0.03 µM): 0.0985 µM
- IC50 (second compound 0.0949 µM): < 0.0316 µM
- IC50 (second compound 0.3 µM): < 0.0316 µM
- viability, T/C [1]: 89.5%
- viability, T/C [2]: 82.3%
- viability, T/C [3]: 71.9%
- viability, T/C [4]: 66.6%
- viability, T/C [5]: 59.6%
- viability, T/C [6]: 49.6%
- viability, T/C [7]: 82.4%
- viability, T/C [8]: 79.2%
- viability, T/C [9]: 63.4%
- viability, T/C [10]: 62.6%
- viability, T/C [11]: 51.6%
- viability, T/C [12]: 40.2%
- viability, T/C [13]: 79.3%
- viability, T/C [14]: 75%
- viability, T/C [15]: 48.5%
- viability, T/C [16]: 52.4%
- viability, T/C [17]: 43.8%
- viability, T/C [18]: 31.9%
- viability, T/C [19]: 55.8%
- viability, T/C [20]: 48.4%
- viability, T/C [21]: 42%
- viability, T/C [22]: 42.7%
- viability, T/C [23]: 34.7%
- viability, T/C [24]: 25.7%
- viability, T/C [25]: 42.3%
- viability, T/C [26]: 38%
- viability, T/C [27]: 31.6%
- viability, T/C [28]: 27.9%
- viability, T/C [29]: 22.7%
- viability, T/C [30]: 16.3%
- viability, T/C [31]: 28.2%
- viability, T/C [32]: 26.2%
- viability, T/C [33]: 22.9%
- viability, T/C [34]: 21%
- viability, T/C [35]: 18.6%
- viability, T/C [36]: 14.2%

Compound: C[C@@H](NC(=O)c1ncnc(N)c1Cl)c1ncc(C(=O)Nc2cc(C(F)(F)F)c(Cl)cn2)s1 + CCn1c(-c2cc(N3CCN(C)CC3)cnc2C(C)OC)c2c3cc(ccc31)-c1csc(n1)CC(NC(=O)C1CC1C)C(=O)N1CCCC(N1)C(=O)OCC(C)(C)C2
- IC50 (second compound 0.000949 µM): > 10 µM
- IC50 (second compound 0.003 µM): > 10 µM
- IC50 (second compound 0.00949 µM): > 10 µM
- IC50 (second compound 0.03 µM): > 10 µM
- IC50 (second compound 0.0949 µM): > 10 µM
- IC50 (second compound 0.3 µM): < 0.0316 µM
- viability, T/C [1]: 96.3%
- viability, T/C [2]: 127%
- viability, T/C [3]: 105%
- viability, T/C [4]: 117%
- viability, T/C [5]: 129%
- viability, T/C [6]: 109%
- viability, T/C [7]: 114%
- viability, T/C [8]: 100%
- viability, T/C [9]: 86.5%
- viability, T/C [10]: 101%
- viability, T/C [11]: 111%
- viability, T/C [12]: 105%
- viability, T/C [13]: 85%
- viability, T/C [14]: 87.1%
- viability, T/C [15]: 89.5%
- viability, T/C [16]: 82.2%
- viability, T/C [17]: 102%
- viability, T/C [18]: 104%
- viability, T/C [19]: 75.7%
- viability, T/C [20]: 67.9%
- viability, T/C [21]: 91%
- viability, T/C [22]: 75.1%
- viability, T/C [23]: 78.8%
- viability, T/C [24]: 72.4%
- viability, T/C [25]: 50.2%
- viability, T/C [26]: 54.3%
- viability, T/C [27]: 54.3%
- viability, T/C [28]: 63.9%
- viability, T/C [29]: 71%
- viability, T/C [30]: 61.4%
- viability, T/C [31]: 34.3%
- viability, T/C [32]: 33.2%
- viability, T/C [33]: 38.6%
- viability, T/C [34]: 41.6%
- viability, T/C [35]: 38.5%
- viability, T/C [36]: 44.1%

Source: PubChem BioAssay AID2060907 (Molecular Pharmacology Branch, DTP, NCI, 2025)
